One experiment relates to Panc-2H4. The experiment can be described thus: Human Panc-2H4 insulin suppression assay. It is filed as cell-based. As to conditions: Homo sapiens. The source says: (§1) Two different assays for "classical" sstr2 functions were adopted: (1) cultured foetal rat pituitary cells secreted growth hormone which is inhibited by sstr2 agonists in a dose-dependent fashion and (2) selected glucose-sensitive sub-clones of the human Panc-1 cell line secrete insulin which is inhibited by sstr2 agonists in a dose-dependent fashion.
Glucose-sensitive sub-clones of the human Panc-1, a cell line derived from a pleiomorphic epithelioid carcinoma of the exocrine pancreas, were obtained essentially as described by Hamil et al. (2008) Biomed. Sci. Instrum. 44:441-6. Briefly, Panc-1 cells were subcultured in 24 well plates, and the medium was supplemented with an additional 5% glucose. […] The resulting sub-lines were then tested for glucose sensitivity by preparing wells of a 96-well plate (5 x 10^4 cells per well) which were then exposed to cultured medium containing a range of glucose concentrations (low glucose DMEM, DMEM, DMEM + 1% glucose, DMEM ± 2.5% glucose and DMEM + 5% glucose). After 24hrs incubation, the conditioned medium was collected and assayed for insulin secretion by ELISA (Linco; cat# EZHI-14K) in accordance with the manufacturer's instructions. […] Further 96 well plates were prepared using Panc-2H4 (5 x 10^4 cells per well) in DMEM. After 24hrs, the medium was switched to DMEM + 5% glucose containing various test agents at various concentrations (triplicate wells per condition). After a further 24hrs, the conditioned medium was harvested and the concentration of insulin was determined by ELISA as described above.
(§2) Results were reported as the mean ± SD, expressed as the fold change from cells in the presence of vehicle only.

The subject of a further experiment is TNF-alpha. Description: Sub-lethal endotoxemia model (LPS challenge, serum TNF-alpha). As to conditions: BN83250 subcutaneous, valerolactam oral gavage. In kind it is in vivo, mouse. Here is the method: We selected the sub-lethal endotoxemia model in mouse, because this has been well characterised in our laboratory (see for example Fox et al. (2002) J. Med. Chem. 45:360-70; Fox et al. (2005) J. Med. Chem. 48:867-74). The extent of systemic inflammation in response to a single intraperitoneal injection of bacterial lipopolysaccharide (LPS) can be estimated by measuring serum TNF-alpha 2 hours post challenge.
Methods: Mice (CD1 strain; adult males; 6 per group) were treated with BSCI (in an appropriate vehicle) or with vehicle alone by an appropriate route. […] Simultaneously, one set of mice at each BSCI concentration received BIM 23627 at 4mg/animal (120mg/kg) by sub-cutaneous injection (a treatment condition known to suppress classical sstr2-mediated signalling, such as GH release, in rats; Tulipano et al. (2002) 143:1218-24). Between 30mins and 1hour after dosing (a period when a maximal plasma concentration of BSCI has been achieved), the inflammatory challenge was elicited by intraperitoneal injection of 750µg of LPS (Sigma; L4130 lot#024K4077; 900,000 EU/mg).
After a further 2 hours, the animals were sacrificed by CO2 asphyxiation, and blood was drawn by cardiac puncture. Serum was prepared by conventional methods, and the level of TNF-alpha in serum was measured using an ELISA (R&D Systems; Murine Quantikine code# MTA00) performed in accordance with the manufacturer's instructions.

The test system of experiment [1] is rat peripheral blood leukocytes. The experiment can be described thus: Rat chemokine-induced PBMC migration assay. In kind it is cell-based. As to conditions: for EC50 / Emax: Rattus norvegicus, Leukocyte, Table 3; for EC50: read-out: Rat chemokine-induced PBMC migration assay ED50; for Emax: read-out: Rat chemokine-induced PBMC migration assay Max effect (%); for "Classical" : "BSCI" potency ratio Rat: Table 3, rat PBMC migration ED50 versus rat pituicyte GH suppression ED50.

In the next experiment the target is sstr2 (Homo sapiens, UniProt P30874). The experiment can be described thus: [3H]-BN83250 equilibrium binding to THP-1 cells.
The subject of a further experiment is fetal rat pituicytes. Description: Rat pituicyte GH suppression assay. It is filed as cell-based. As to conditions: Rattus norvegicus; for Emax: Table 3, percentage suppression compared to vehicle, read-out: Rat pituicyte GH suppression assay Max effect (%); for EC50: Table 3, read-out: Rat pituicyte GH suppression assay ED50.
Description: as §1
Methods: Cultures of fetal rat pituicytes were established exactly as previously described (Murray et al. (2004) J. Clin. Endocrinol. Metab. 89:3027-32) by enzymatic dispersion. After 48hrs in low glucose DMEM plus 10% FCS, cells in 48 well plates (5 x 10^4 cells per well) were washed for 4hrs in serum-free DMEM and then incubated with test agents at various concentrations for a further 24hrs in serum-free DMEM. At the end of this period, the conditioned medium was harvested, any cell debris removed by centrifugation and assayed for GH using a commercially available ELISA (Linco; cat# EZRMGH-45K) in accordance with the manufacturer's instructions.
as §2

The subject of another experiment is Jurkat T cells. The experiment can be described thus: SDF-1α induced migration of parental Jurkat T cells. In kind it is cell-based, human. The protocol: Jurkat T cells and Jurkat-D3B cells were induced to migrate in response to 100ng/ml SDF-1α (R&D systems; the concentration of SDF-1α which induced maximal cell migration in both lines). The BSCI BN83250 was then added at various concentrations between 0nM and 1000nM (each in triplicate) to both the upper and lower compartments (at the same concentration in each compartment, so as not to create a gradient of BSCI concentration). DMSO (1% final concentration) was used as the vehicle, and was present in all wells at equal concentration.

Where [2] appears, read: Table 3, percentage suppression compared to vehicle, read-out: Human Panc-2H4 insulin suppression assay Max effect (%).

SMILES strings stand for the structures. Where two headings read alike, the source gives them in different places.

sstr2, sequence (P30874 whole entry): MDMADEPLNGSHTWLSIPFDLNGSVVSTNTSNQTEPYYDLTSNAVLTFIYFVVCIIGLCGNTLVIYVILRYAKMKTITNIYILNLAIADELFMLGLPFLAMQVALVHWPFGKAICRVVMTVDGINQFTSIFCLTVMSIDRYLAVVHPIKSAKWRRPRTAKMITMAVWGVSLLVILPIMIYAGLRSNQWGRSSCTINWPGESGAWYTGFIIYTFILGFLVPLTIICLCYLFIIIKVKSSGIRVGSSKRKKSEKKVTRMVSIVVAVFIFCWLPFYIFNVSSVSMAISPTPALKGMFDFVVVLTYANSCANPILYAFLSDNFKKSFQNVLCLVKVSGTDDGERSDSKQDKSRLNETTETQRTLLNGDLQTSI
Description for sstr2: We have investigated the molecular interaction between BSCIs and the sstr2 receptor using conventional equilibrium binding studies employing labelled BSCI ligands.
For the analysis of binding, individual reactions were set up (in triplicate for each condition), with 1x10^6 THP-1 cells in Gey's Balanced Salt Solution, 10nM [^3H]-BN83250 (at 50 Ci/mmol) and various concentrations of (S)-3(2'2'-dimethylpropionoylamino)-tetrahydropyridin-2-one (10pM to 10µM). Excess (100µM) unlabelled BN83250 was used to determine the level of non-specific binding. After 2 hours at 4°C (conditions previously shown to achieve equilibrium binding, and which prevent uptake of the radioligand that would result in an over-estimate of binding) excess label was washed away by centrifugation (3 washes with 5ml of Gey's Balanced Salt Solution) and the bound radioactivity was determined by scintillation counting of the solubilised cell pellet.

For the compound `CCCCCCCCCCC(C)(C)C(=O)N[C@H]1CCCCNC1=O` [BN83250, (S)-3-(2',2'-dimethyldodecanoyl)amino-caprolactam], the Emax in the experiment on Panc-2H4 (setting [2]) came out at 28%; in the experiment with Panc-2H4 (Table 5, read-out: Panc-2H4 insulin suppression assay ("classical" target) Max Effect (%)), 28%; in experiment [1], 100%; with fetal rat pituicytes, 63%. For the same compound, the EC50 amounted to 1000 nM in the experiment on Panc-2H4 (Table 3, read-out: Human Panc-2H4 insulin suppression assay ED50); 1000 nM with Panc-2H4 (Table 5, library screening hits, read-out: Panc-2H4 insulin suppression assay ("classical" target) ED50); 0.28 nM in experiment [1]; 320 nM in the experiment on fetal rat pituicytes. In the experiment on TNF-alpha, the “inhibition of LPS-induced TNF-alpha production (in words)” value is “dramatically inhibited”. In experiment [1], the “"Classical" : "BSCI" potency ratio Rat” value worked out at 0.0009. The Kd (as a rule, the concentration at which binding is half-saturated) at sstr2 is approximately 80 nM. Besides, the “effect on SDF-1α induced migration of parental Jurkat T cell line (in words)” value with Jurkat T cells was “little or no effect”.

Turning to `CC(C)(C)C(=O)N[C@H]1CCCNC1=O` [Valerolactam, (S)-3-(2'2'-dimethylpropionoylamino)-tetrahydropyridin-2-one], the Emax with Panc-2H4 (setting [2]) was less than 10%; in experiment [1], 100%; in the experiment with fetal rat pituicytes it was 61%. Also, in the experiment on TNF-alpha, the “inhibition of LPS-induced TNF-alpha production (in words)” value is reported as “dramatically inhibited”. Also, the EC50 in experiment [1] is 0.07 nM; on sstr2 (read-out: ED50 for competition with [3H]-BN83250 binding at sstr2, 10nM [3H]-BN83250), approximately 0.05 nM; in the experiment on fetal rat pituicytes it was 80 nM. Moreover, in experiment [1], the “"Classical" : "BSCI" potency ratio Rat” value was determined as 0.0009. Further, on sstr2 (1nM and above), the “inhibition of BN83250 binding” value is given as 80-90%. For the same compound, the “Hill Slope” value on sstr2 (competition with [3H]-BN83250) is “approximately -1.0”.

For the origin of these results see EP2401611B1, “IMPROVED METHODS FOR IDENTIFICATION” (Cambridge Enterprise Limited, priority 2009, dated 2010).
